Laboratory results taken from patent publication US20190367516A1 (Bayer Pharma Aktiengesellschaft, priority 2015, published 2019).
Like-named read-outs stand apart in the source and are kept apart here.

Assays:
human M2 receptor [1] = biological target: T1, human M2 receptor (Homo sapiens, UniProt P08172); assay type: cell-based; details: α >1 = positive cooperativity
T1 sequence (P08172 1-466): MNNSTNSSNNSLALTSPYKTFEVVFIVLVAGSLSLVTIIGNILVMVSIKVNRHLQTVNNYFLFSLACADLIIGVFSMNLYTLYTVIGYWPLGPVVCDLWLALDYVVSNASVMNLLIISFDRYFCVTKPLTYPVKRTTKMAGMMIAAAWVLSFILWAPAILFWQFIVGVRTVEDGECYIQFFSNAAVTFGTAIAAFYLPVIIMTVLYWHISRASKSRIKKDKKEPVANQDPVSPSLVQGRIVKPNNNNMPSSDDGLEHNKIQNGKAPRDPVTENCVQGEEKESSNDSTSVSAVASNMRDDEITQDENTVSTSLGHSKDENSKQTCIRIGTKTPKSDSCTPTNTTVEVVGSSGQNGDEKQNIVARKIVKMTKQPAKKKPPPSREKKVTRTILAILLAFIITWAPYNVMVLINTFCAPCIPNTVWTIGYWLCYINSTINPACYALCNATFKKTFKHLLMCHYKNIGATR

human M2 receptor [2] = biological target: T1, human M2 receptor; details: for Emax: read-out: Efficiency, boosting of the acetylcholine effect at EC20 acetylcholine concentration
[3] = shift in the acetylcholine dose-response curve (Allosteric EC50 shift, GraphPad PRISM)
[4] = Receptor activity EC50, M2-GIRK1/4 activation test, acetylcholine at EC20, allosteric potency, in some cases mean values from two or more determinations
[5] = shift of acetylcholine dose-response curve (Allosteric EC50 shift)
[6] = Receptor activity EC50, allosteric potency at EC20 acetylcholine, M2-GIRK1/4 reporter cells, in some cases mean of two or more determinations

SMILES | Cooperativity (alpha factor) (human M2 receptor [1]; [3]) | EC50 (human M2 receptor [2]; [4]) [nM] | Cooperativity (alpha factor) (human M2 receptor [1]; [5]) | EC50 (human M2 receptor [2]; [6]) [nM] | Emax (human M2 receptor [2]; M2-GIRK1/4 reporter cells) [%]
O=C(NC12CC(C(F)(F)F)(C1)C2)c1cn(-c2c(F)cc(F)cc2F)c2nc(N3C[C@@H](O)[C@H](O)C3)ccc2c1=O [Example 371, 7-[(3R,4R)-3,4-Dihydroxypyrrolidin-1-yl]-4-oxo-N-[3-(trifluoromethyl)bicyclo[1.1.1]pent-1-yl]-1-(2,4,6-trifluorophenyl)-1,4-dihydro-1,8-naphthyridine-3-carboxamide] | 36 | 18 | – | – | –
O=C(NC12CC(C(F)(F)F)(C1)C2)c1cn(-c2c(F)cc(F)cc2F)c2nc(N3C[C@@H](O)CC3=O)ccc2c1=O [Example 372, 7-[(4S)-4-Hydroxy-2-oxopyrrolidin-1-yl]-4-oxo-N-[3-(trifluoromethyl)bicyclo[1.1.1]pent-1-yl]-1-(2,4,6-trifluorophenyl)-1,4-dihydro-1,8-naphthyridine-3-carboxamide] | 34 | 20 | – | – | –
CC[C@H](NC(=O)c1cn(-c2c(F)cc(F)cc2F)c2nc(N3CCN/C3=N\C(=O)OC)ccc2c1=O)C(F)(F)F [Example 377, Methyl {1-[5-oxo-6-{[(2S)-1,1,1-trifluorobutan-2-yl]carbamoyl}-8-(2,4,6-trifluorophenyl)-5,8-dihydro-1,8-naphthyridin-2-yl]imidazolidin-2-ylidene}carbamate] | 34 | 48 | – | – | –
CN(CCO)c1ccc2c(=O)c(C(=O)N[C@@H](C3CC3)C(F)(F)F)cn(-c3c(F)cc(F)cc3F)c2n1 [Example 384, N-[(1S)-1-Cyclopropyl-2,2,2-trifluoroethyl]-7-[(2-hydroxyethyl)(methyl)amino]-4-oxo-1-(2,4,6-trifluorophenyl)-1,4-dihydro-1,8-naphthyridine-3-carboxamide] | 22 | 28 | – | – | –
CN(CC(=O)O)c1ccc2c(=O)c(C(=O)N[C@@H](C3CC3)C(F)(F)F)cn(-c3c(F)cc(F)cc3F)c2n1 [Example 385, N-[6-{[(1S)-1-Cyclopropyl-2,2,2-trifluoroethyl]carbamoyl}-5-oxo-8-(2,4,6-trifluorophenyl)-5,8-dihydro-1,8-naphthyridin-2-yl]-N-methylglycine] | 11 | 68 | – | – | –
O=C(NC12CC(C1)C2)c1cn(-c2c(F)cc(F)cc2Cl)c2nc(N3C[C@@H](O)CC3=O)ccc2c1=O [Example 396, N-(Bicyclo[1.1.1]pent-1-yl)-1-(2-chloro-4,6-difluorophenyl)-7-[(4S)-4-hydroxy-2-oxopyrrolidin-1-yl]-4-oxo-1,4-dihydro-1,8-naphthyridine-3-carboxamide] | – | – | 29 | 17 | 92
CC[C@H](NC(=O)c1cn(-c2c(F)cc(F)cc2Cl)c2nc(N3C[C@@H](O)CC3=O)ccc2c1=O)C(F)(F)F [Example 398, 1-(2-Chloro-4,6-difluorophenyl)-7-[(4S)-4-hydroxy-2-oxopyrrolidin-1-yl]-4-oxo-N-[(2S)-1,1,1-trifluorobutan-2-yl]-1,4-dihydro-1,8-naphthyridine-3-carboxamide] | – | – | 26 | 10 | 100
O=C(NC12CC(C1)C2)c1cn(-c2c(F)cc(F)cc2Cl)c2nc(N3C[C@@H](O)[C@H](O)C3)ccc2c1=O [Example 402, N-(Bicyclo[1.1.1]pent-1-yl)-1-(2-chloro-4,6-difluorophenyl)-7-[(3R,4R)-3,4-dihydroxypyrrolidin-1-yl]-4-oxo-1,4-dihydro-1,8-naphthyridine-3-carboxamide] | – | – | 18 | 25 | 97.5
C[C@H](NC(=O)c1cn(-c2c(F)cc(F)cc2Cl)c2nc(N3C[C@@H](O)CC3=O)ccc2c1=O)C(F)(F)F [Example 409, 1-(2-Chloro-4,6-difluorophenyl)-7-[(4S)-4-hydroxy-2-oxopyrrolidin-1-yl]-4-oxo-N-[(2S)-1,1,1-trifluoropropan-2-yl]-1,4-dihydro-1,8-naphthyridine-3-carboxamide] | – | – | 22 | 19 | 99.5
C[C@@H]1CN(c2ccc3c(=O)c(C(=O)N[C@@H](C4CC4)C(F)(F)F)cn(-c4c(F)cc(F)cc4F)c3n2)C(=O)N1 [Example 437, N-[(1S)-1-Cyclopropyl-2,2,2-trifluoroethyl]-7-[(4R)-4-methyl-2-oxoimidazolidin-1-yl]-4-oxo-1-(2,4,6-trifluorophenyl)-1,4-dihydro-1,8-naphthyridine-3-carboxamide] | – | – | 29 | 9 | 98.4
C[C@H]1CN(c2ccc3c(=O)c(C(=O)N[C@@H](C4CC4)C(F)(F)F)cn(-c4c(F)cc(F)cc4F)c3n2)C(=O)N1 [Example 449, N-[(1 S)-1-Cyclopropyl-2,2,2-trifluoroethyl]-7-[(4S)-4-methyl-2-oxoimidazolidin-1-yl]-4-oxo-1-(2,4,6-trifluorophenyl)-1,4-dihydro-1,8-naphthyridine-3-carboxamide] | – | – | 34 | 15 | 91
CC1(C)CN(c2ccc3c(=O)c(C(=O)N[C@@H](C4CC4)C(F)(F)F)cn(-c4c(F)cc(F)cc4F)c3n2)C(=O)N1 [Example 451, N-[(1 S)-1-Cyclopropyl-2,2,2-trifluoroethyl]-7-(4,4-dimethyl-2-oxoimidazolidin-1-yl)-4-oxo-1-(2,4,6-trifluorophenyl)-1,4-dihydro-1,8-naphthyridine-3-carboxamide] | – | – | 21 | 8 | 91

Continued, values first:

Cooperativity (alpha factor) (human M2 receptor [1]; [3]) | EC50 (human M2 receptor [2]; [4]) [nM] | Cooperativity (alpha factor) (human M2 receptor [1]; [5]) | EC50 (human M2 receptor [2]; [6]) [nM] | Emax (human M2 receptor [2]; M2-GIRK1/4 reporter cells) [%] | SMILES
– | – | 25 | 13 | 100 | C[C@@H]1CN(c2ccc3c(=O)c(C(=O)NC(C)(C)C(F)F)cn(-c4c(F)cc(F)cc4F)c3n2)C(=O)N1 [Example 452, N-(1,1-Difluoro-2-methylpropan-2-yl)-7-[(4R)-4-methyl-2-oxoimidazolidin-1-yl]-4-oxo-1-(2,4,6-trifluorophenyl)-1,4-dihydro-1,8-naphthyridine-3-carboxamide]
– | – | 32 | 9 | 92 | CC[C@H](NC(=O)c1cn(-c2c(F)cc(F)cc2F)c2nc(N3C[C@@H](C)NC3=O)ccc2c1=O)C(F)(F)F [Example 456, 7-[(4R)-4-Methyl-2-oxoimidazolidin-1-yl]-4-oxo-N-[(2S)-1,1,1-trifluorobutan-2-yl]-1-(2,4,6-trifluorophenyl)-1,4-dihydro-1,8-naphthyridine-3-carboxamide]
– | – | 36 | 4 | 82 | C[C@@H]1CN(c2ccc3c(=O)c(C(=O)NC(C)(C)CC(F)(F)F)cn(-c4c(F)cc(F)cc4F)c3n2)C(=O)N1 [Example 457, 7-[(4R)-4-Methyl-2-oxoimidazolidin-1-yl]-4-oxo-N-(4,4,4-trifluoro-2-methylbutan-2-yl)-1-(2,4,6-trifluorophenyl)-1,4-dihydro-1,8-naphthyridine-3-carboxamide]
– | – | 17 | 18 | 88 | O=C(N[C@@H](C1CC1)C(F)(F)F)c1cn(-c2c(F)cc(F)cc2F)c2nc(N3CCCC[C@@H]3CO)ccc2c1=O [Example 462, N-[(1 S)-1-Cyclopropyl-2,2,2-trifluoroethyl]-7-[(2R)-2-(hydroxymethyl)piperidin-1-yl]-4-oxo-1-(2,4,6-trifluorophenyl)-1,4-dihydro-1,8-naphthyridine-3-carboxamide]
– | – | 44 | 5 | 100 | CC(C)C(NC(=O)c1cn(-c2c(F)cc(F)cc2F)c2nc(N3C[C@@H](O)[C@H](O)C3)ccc2c1=O)C(C)C [Example 474, 7-[(3R,4R)-3,4-Dihydroxypyrrolidin-1-yl]-N-(2,4-dimethylpentan-3-yl)-4-oxo-1-(2,4,6-trifluorophenyl)-1,4-dihydro-1,8-naphthyridine-3-carboxamide]
– | – | 68 | 2 | 100 | CC(C)C(NC(=O)c1cn(-c2c(F)cc(F)cc2F)c2nc(N3C[C@@H](O)CC3=O)ccc2c1=O)C(C)C [Example 475, N-(2,4-Dimethylpentan-3-yl)-7-[(4S)-4-hydroxy-2-oxopyrrolidin-1-yl]-4-oxo-1-(2,4,6-trifluorophenyl)-1,4-dihydro-1,8-naphthyridine-3-carboxamide]
– | – | 53 | 24 | 96 | CC(C)(NC(=O)c1cn(-c2c(F)cc(F)cc2F)c2nc(N3CC[C@@H](O)C3=O)ccc2c1=O)C(F)(F)F [Example 488, 7-[(3R)-3-Hydroxy-2-oxopyrrolidin-1-yl]-4-oxo-N-(1,1,1-trifluoro-2-methylpropan-2-yl)-1-(2,4,6-trifluorophenyl)-1,4-dihydro-1,8-naphthyridine-3-carboxamide]
